The structures appear in SMILES notation.

For one assay, the target named is T1, human α7 nAChR (Homo sapiens, UniProt P36544).
T1 construct: expressed in transfected cells
T1 sequence (P36544 23-502): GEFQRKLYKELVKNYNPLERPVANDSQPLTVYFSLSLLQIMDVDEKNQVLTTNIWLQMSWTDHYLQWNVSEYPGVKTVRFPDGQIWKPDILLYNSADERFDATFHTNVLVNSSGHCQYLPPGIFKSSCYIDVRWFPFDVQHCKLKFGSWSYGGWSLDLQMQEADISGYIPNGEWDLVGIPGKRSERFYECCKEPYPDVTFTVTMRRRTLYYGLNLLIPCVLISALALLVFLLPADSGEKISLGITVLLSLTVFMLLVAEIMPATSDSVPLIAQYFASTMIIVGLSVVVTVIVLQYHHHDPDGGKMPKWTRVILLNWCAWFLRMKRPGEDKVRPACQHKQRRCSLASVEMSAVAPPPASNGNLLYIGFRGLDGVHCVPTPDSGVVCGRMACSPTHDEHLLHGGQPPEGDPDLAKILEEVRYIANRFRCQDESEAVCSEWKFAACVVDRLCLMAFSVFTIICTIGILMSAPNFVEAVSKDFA
The experiment in a line: Evaluation of PAM activity with human α7 nACh receptor stably expressing cells (aequorin luminescence, FDSS7000). The conditions noted are these: 1 μM test compound (values marked *, footnote of Table 25); ACh at EC20; ratio of RLU (Max-Min) to control wells; read-out: α7PAM (%) @1 μM. Format: cell-based. In a few lines: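 Human α7 nAChR stable cells loaded with 4 μM Viviren (final) for 4 h at room temperature in the dark. Compounds in Hanks/20 mM HEPES/0.2% BSA were added and luminescence recorded on FDSS7000. PAM activity = RLU (Max-Min) ratio of test wells to control wells.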
In the case of `CC(C)(F)C(=O)N[C@H]1CC[C@@H](n2cnc(-c3ccc(F)c(OC(F)(F)F)c3)c2)CC1` [Example 295], the activity at 1 µM came to 444%. Same read-out and setting: the same measure for `CC(C)(F)C(=O)N[C@H]1CC[C@@H](n2cnc(-c3ccc(OC(F)(F)F)c(F)c3)c2)CC1` [Example 296]: 589%. `CC(C)(F)C(=O)N[C@H]1CC[C@@H](n2cnc(-c3cc(OC(F)(F)F)ccc3F)c2)CC1` [Example 304]: the activity at 1 µM worked out at 600%. Same read-out and setting: the same measure for `COc1cc(-c2cn([C@H]3CC[C@@H](NC(=O)C(C)(C)F)CC3)cn2)ccc1Cl` [Example 309]: 181%.

`CC(C)(F)C(=O)N[C@H]1CC[C@@H](n2cnc(-c3cc(F)c(F)cc3F)c2)CC1` [Example 313]: the activity at 1 µM came out at 273%. The same measure, in the same setting: in the case of `CC(C)(F)C(=O)N[C@H]1CC[C@@H](n2cnc(-c3cc(F)c(Cl)cc3F)c2)CC1` [Example 316] it was 267%. Still for that read-out and setting: the same measure for `CC(C)(F)C(=O)N[C@H]1CC[C@@H](n2cnc(-c3cc(F)c(F)cc3Cl)c2)CC1` [Example 317]: 345%.

As to `CC(C)(F)C(=O)N[C@H]1CC[C@@H](n2cnc(-c3cc(Cl)c(F)cc3F)c2)CC1` [Example 318], the activity at 1 µM came out at 179%. As to `CC(C)(F)C(=O)N[C@H]1CC[C@@H](n2cnc(-c3cc(OC(F)(F)F)ccc3F)c2Cl)CC1` [Example 328], the activity at 1 µM came to 859%.

In the case of `CC(C)(F)C(=O)N[C@H]1CC[C@@H](n2cnc(-c3ccccc3OC(F)(F)F)c2Cl)CC1` [Example 331], the activity at 1 µM was found to be 467%. On the same count and under the same terms, in the case of `CC(C)(C)C(=O)N[C@H]1CC[C@@H](n2cnc(-c3ccc(Cl)cc3)c2C#N)CC1` [Example 334] it was 212%.

Still in this assay, the particulars now being: 10 μM test compound; ACh at EC20; ratio of RLU (Max-Min) to control wells.
Consider `CC(C)(F)C(=O)N[C@H]1CC[C@@H](n2cnc(-c3ccc(F)cc3)c2)CC1` [Example 277], for which the “α7PAM (%) @10 μM” value was determined as 424%.

Still in this assay, the particulars now being: 10 μM test compound; ACh at EC20; ratio of RLU (Max-Min) to control wells; read-out: α7PAM (%) @10 μM.
As for `COc1ccc(-c2ncn(C3CCN(C(=O)C4CCC(F)(F)CC4)CC3)c2C#N)cc1` [Example 265], the activity at 10 µM was found to be 990%. For `CC(C)(F)C(=O)N1CCC(n2cnc(-c3ccc(F)cc3)c2C#N)CC1` [Example 266], the activity at 10 µM was 149%. As to `N#Cc1c(-c2ccc(F)cc2)ncn1C1CCN(C(=O)C2CC(F)(F)C2)CC1` [Example 267], the activity at 10 µM is 594%. Still for that read-out and setting: the same measure for `N#Cc1c(-c2ccccc2)ncn1C1CCN(C(=O)C2CC(F)(F)C2)CC1` [Example 268]: 725%; for `N#Cc1c(-c2cccc(F)c2)ncn1C1CCN(C(=O)C2CC(F)(F)C2)CC1` [Example 269]: 452%. On to `N#Cc1c(-c2ccccc2F)ncn1C1CCN(C(=O)C2CC(F)(F)C2)CC1` [Example 270], for which the activity at 10 µM was determined as 569%. Regarding `N#Cc1c(-c2ccc(F)cc2F)ncn1C1CCN(C(=O)C2CCC(F)(F)CC2)CC1` [Example 271], the activity at 10 µM came out at 275%. Consider `N#Cc1c(-c2cccc(F)c2F)ncn1C1CCN(C(=O)C2CCC(F)(F)CC2)CC1` [Example 272], for which the activity at 10 µM came out at 138%. Still for that read-out and setting: the same measure for `N#Cc1c(-c2ccc(F)c(F)c2)ncn1C1CCN(C(=O)C2CCC(F)(F)CC2)CC1` [Example 273]: 139%; for `N#Cc1c(-c2cc(F)ccc2F)ncn1C1CCN(C(=O)C2CCC(F)(F)CC2)CC1` [Example 274]: 351%; for `Cc1c(-c2ccc(F)cc2)ncn1C1CCN(C(=O)C2CCC(F)(F)CC2)CC1` [Example 275]: 912%.

Regarding `Cc1c(-c2ccc(F)cc2)ncn1C1CCN(C(=O)C2CCOCC2)CC1` [Example 276], the activity at 10 µM turned out to be 244%. The same measure, in the same setting: the same measure for `CC(C)(F)C(=O)N[C@H]1CC[C@@H](n2cnc(-c3ccc(OC(F)(F)F)cc3)c2)CC1` [Example 278]: 834%. For `CC(C)(C)C(=O)N[C@H]1CC[C@@H](n2cnc(-c3ccc(OC(F)(F)F)cc3)c2)CC1` [Example 279], the activity at 10 µM is 236%.

Turning to `CC(C)(C)C(=O)N[C@H]1CC[C@@H](n2cnc(-c3ccc(Cl)cc3)c2)CC1` [Example 281], the activity at 10 µM was found to be 411%. The same measure, in the same setting: the same measure for `O=C(N[C@H]1CC[C@@H](n2cnc(-c3ccc(F)cc3)c2)CC1)C1CCOCC1` [Example 282]: 229%. The same measure, in the same setting: the same measure for `CC(C)(F)C(=O)N[C@H]1CC[C@@H](n2cnc(-c3ccc(Cl)cc3F)c2)CC1` [Example 283, N-{cis-4-[4-(4-chloro-2-fluorophenyl)-1H-imidazol-1-yl]cyclohexyl}-2-fluoro-2-methylpropanamide]: 390%. The same measure, in the same setting: in the case of `CC(C)(F)C(=O)N[C@H]1CC[C@@H](n2cnc(-c3cc(Cl)ccc3F)c2)CC1` [Example 284] it was 398%; in that of `COc1ccc(-c2cn([C@H]3CC[C@@H](NC(=O)C(C)(C)F)CC3)cn2)cc1` [Example 285], 869%; in that of `CC(C)(F)C(=O)N[C@H]1CC[C@@H](n2cnc(-c3cccc(Cl)c3)c2)CC1` [Example 286], 469%. Consider `CC(F)(F)C(=O)N[C@H]1CC[C@@H](n2cnc(-c3ccc(F)cc3)c2)CC1` [Example 288], for which the activity at 10 µM came to 327%. Same read-out and setting: in the case of `O=C(N[C@H]1CC[C@@H](n2cnc(-c3ccc(F)cc3)c2)CC1)C(F)F` [Example 289] it was 125%; in that of `CC(C)(C(=O)N[C@H]1CC[C@@H](n2cnc(-c3ccc(F)cc3)c2)CC1)C(F)(F)F` [Example 290], 194%; in that of `CC(F)(F)C(=O)N[C@H]1CC[C@@H](n2cnc(-c3ccc(Cl)cc3)c2)CC1` [Example 291], 420%.

With `O=C(N[C@H]1CC[C@@H](n2cnc(-c3ccc(Cl)cc3)c2)CC1)C(F)F` [Example 292], the activity at 10 µM amounted to 101%. The same measure, in the same setting: the same measure for `CC(C)(C(=O)N[C@H]1CC[C@@H](n2cnc(-c3ccc(Cl)cc3)c2)CC1)C(F)(F)F` [Example 293]: 211%. As to `CC(C)(F)C(=O)N[C@H]1CC[C@@H](n2cnc(-c3cccc(F)c3)c2)CC1` [Example 294], the activity at 10 µM is 326%. As for `CC(C)(F)C(=O)N[C@H]1CC[C@@H](n2cnc(-c3ccccc3F)c2)CC1` [Example 297], the activity at 10 µM is 866%. With `CC(C)(F)C(=O)N[C@H]1CC[C@@H](n2cnc(-c3cccc(OC(F)(F)F)c3)c2)CC1` [Example 298], the activity at 10 µM came to 166%. The same measure, in the same setting: in the case of `CC(C)(F)C(=O)N[C@H]1CC[C@@H](n2cnc(-c3cccc(F)c3F)c2)CC1` [Example 299] it was 893%. As for `CC(C)(F)C(=O)N[C@H]1CC[C@@H](n2cnc(-c3cc(F)ccc3F)c2)CC1` [Example 301], the activity at 10 µM was found to be 828%. The same measure, in the same setting: the same measure for `CC(C)(F)C(=O)N[C@H]1CC[C@@H](n2cnc(-c3cc(F)cc(F)c3)c2)CC1` [Example 302]: 325%; for `CC(C)(F)C(=O)N[C@H]1CC[C@@H](n2cnc(-c3ccc(OC(F)(F)F)cc3F)c2)CC1` [Example 303]: 208%; for `COc1ccc(-c2cn([C@H]3CC[C@@H](NC(=O)C(C)(C)F)CC3)cn2)c(F)c1` [Example 307]: 634%. Turning to `COc1ccc(-c2cn([C@H]3CC[C@@H](NC(=O)C(C)(C)F)CC3)cn2)cc1Cl` [Example 308], the activity at 10 µM came to 513%. Same read-out and setting: the same measure for `CC(C)(F)C(=O)N[C@H]1CC[C@@H](n2cnc(-c3ccc(F)c(F)c3)c2)CC1` [Example 310]: 227%; for `CC(C)(F)C(=O)N[C@H]1CC[C@@H](n2cnc(-c3ccccc3OC(F)(F)F)c2)CC1` [Example 311]: 290%; for `CC(C)(F)C(=O)N[C@H]1CC[C@@H](n2cnc(-c3ccc(F)c(F)c3F)c2)CC1` [Example 312]: 662%. Same read-out and setting: the same measure for `CC(C)(F)C(=O)N[C@H]1CC[C@@H](n2cnc(-c3c(F)cc(F)cc3F)c2)CC1` [Example 314]: 591%. On the same count and under the same terms, the same measure for `CC(C)(F)C(=O)N[C@H]1CC[C@@H](n2cnc(-c3c(F)cccc3F)c2)CC1` [Example 315]: 501%; for `COc1cc(F)c(-c2cn([C@H]3CC[C@@H](NC(=O)C(C)(C)F)CC3)cn2)cc1F` [Example 319]: 328%; for `CC(C)(C)C(=O)N[C@H]1CC[C@@H](n2cnc(-c3ccc(OC(F)(F)F)cc3)c2Cl)CC1` [Example 321]: 800%. As to `CC(C)(C)C(=O)N[C@H]1CC[C@@H](n2cnc(-c3ccc(Cl)cc3)c2Cl)CC1` [Example 322], the activity at 10 µM is 314%.

In the case of `O=C(N[C@H]1CC[C@@H](n2cnc(-c3ccc(F)cc3)c2Cl)CC1)C1CCOCC1` [Example 323], the activity at 10 µM was 421%. As for `CC(C)(F)C(=O)N[C@H]1CC[C@@H](n2cnc(-c3ccc(OC(F)(F)F)c(F)c3)c2Cl)CC1` [Example 324], the activity at 10 µM was 860%.

Take `CC(C)(F)C(=O)N[C@H]1CC[C@@H](n2cnc(-c3cccc(OC(F)(F)F)c3)c2Cl)CC1` [Example 325]: the activity at 10 µM worked out at 210%. Take `CC(C)(F)C(=O)N[C@H]1CC[C@@H](n2cnc(-c3cc(F)ccc3F)c2Cl)CC1` [Example 329]: the activity at 10 µM amounted to 643%. For the compound `CC(C)(F)C(=O)N[C@H]1CC[C@@H](n2cnc(-c3ccc(F)c(OC(F)(F)F)c3)c2Cl)CC1` [Example 330], the activity at 10 µM stood at 154%. As for `CC(C)(F)C(=O)N[C@H]1CC[C@@H](n2cnc(-c3ccc(F)cc3)c2C#N)CC1` [Example 332, N-{cis-4-[5-cyano-4-(4-fluorophenyl)-1H-imidazol-1-yl]cyclohexyl}-2-fluoro-2-methylpropanamide], the activity at 10 µM came to 464%. Regarding `CC(C)(F)C(=O)N[C@H]1CC[C@@H](n2cnc(-c3ccc(Cl)cc3)c2C#N)CC1` [Example 333], the activity at 10 µM is 233%. Take `N#Cc1c(-c2ccc(F)cc2)ncn1[C@H]1CC[C@@H](NC(=O)C2CCC(F)(F)CC2)CC1` [Example 335]: the activity at 10 µM came to 312%.

(Values after patent US20150259344A1, “IMIDAZOLE DERIVATIVE” (DAINIPPON SUMITOMO PHARMA CO., LTD., priority 2012, published 2015).)
